Reference: ChEMBL document CHEMBL3244159, “Ultraviolet photoelectron spectroscopy of cyclic amidines. 1. Electronic structure of some alpha-adrenergic benzylimidazolines” (J Med Chem, 1979)

Columns and labels:
Oryctolagus cuniculus = species: Oryctolagus cuniculus; assay: Binding affinity to alpha-adrenergic receptor in rabbit jejunum; assay type: tissue-based
[1] = molecular target: Adrenergic receptor alpha; assay: Displacement of [3H]clonidine from alpha-adrenergic receptor in rat brain; assay type: tissue-based

SMILES | pD2 (Oryctolagus cuniculus) | Ki [1]
Cc1cc(C(C)(C)C)c(O)c(C)c1CC1=NCCN1 | 9.8 | –
c1ccc2c(CC3=NCCN3)cccc2c1 | 7.1 | –
c1ccc2c(c1)CCCC2C1=NCCN1 (stereo not given) [TETRAHYDROZOLINE] | 6.5 | 11 nM
Cc1cc(C(C)(C)C)cc(C)c1CC1=NCCN1 | 7.1 | –
